Results published in patent US20160326219A1, “OPTICALLY ACTIVATED RECEPTORS” (IST AUSTRIA (INSTITUTE OF SCIENCE AND TECHNOLOGY AUSTRIA), priority 2013, published 2016).
Where two headings read alike, the source gives them in different places.

Tests used:
imFGFR1 = biological target: T1, imFGFR1 (Mus musculus, UniProt P16092); assay: Chemical stimulation of imFGFR1, MAPK luciferase reporter (HEK293 cells); format: cell-based, murine; details: 10 nM, FIG. 2b
T1 construct: a single or both FKBP domains were deleted to yield constructs miFGFR1 and miFGFR1-ΔFKBP; myristoylation domain (N); expressed in transfected cells; host or cells: HEK293
Description: (§1) Activation of the MAPK pathway was assayed with the PathDetect Elk1 trans-Reporting System (Agilent) consisting of an Elk1 phosphorylation-dependent trans-activator and a luciferase-based trans-reporter. Cells were transfected with 213.3 ng total DNA per well (receptor, trans-activator and trans-reporter at ratio of 1:3:60 or 1:30:600) using Lipofectamine 2000. Six h after transfection medium was replaced with CO2-independent reduced serum starve medium (Gibco/Life Technologies; supplemented with 0.5% FBS, 2 mM L-Glutamine, 100 U/ml penicilin and 0.1 mg/ml streptomycin) for 18 h at 37° C. Cells were transferred and were either kept under constant illumination for 8 h or were protected from light. Chemical stimulation of imFGFR1 followed the same procedure, except that 10 nM AP20187 ((Clackson 1998); ARIAD Pharmaceuticals, Cambridge, Mass.) were added before transfer to the stimulation incubator. After incubation, plates were washed once with PBS and luciferase was detected with standard, off-the-shelf reagents. These were either Luciferase 1000 Assay System (Promega, Mannheim, Germany) in combination with a microplate reader equipped with an injector (Tecan Infinite 200 Pro, Maennedorf, Switzerland), or ONE-Glo Assay System (Promega) in combination with a microplate reader not equipped with an injector (BioTek Synergy H1). These assay systems provide equivalent results.

MAPK pathway = assay: All optical evaluation of pharmacological compounds, luciferase signals of HEK293 cells expressing redOpto-rtrkB; format: cell-based, human; details: red light ~0.05 μW/mm^2, UO 10 μM, SEL 0.5 μM, PD 5 μM, IMA 0.5 μM, VEM 0.5 μM
Description: Phycocyanobilin (PCB; Livchem Logistics GmbH, Frankfurt a.M., Germany) was dissolved in a dark room to a stock concentration of 10 mM in DMSO. Aliquots were stored in the dark at −20° C. Prior to experiments, cells were incubated with 50 μM PCB overnight in reduced serum starve medium at 37° C. PCB could also be applied to applied to living animals as it is non-toxic even in high doses (0.17% of diet or 10 mg/kg) (McCarty (2007).
as §1, with “Chemical stimulation of imFGFR1 followed the same procedure, except that 10 nM AP20187 ((Clackson 1998); ARIAD Pharmaceuticals, Cambridge, Mass.) were added before transfer to the stimulation incubator.” left out, “These assay systems provide equivalent results.” left out
For M38K cells, cell morphology was evaluated as described above but followed by automated image analysis. Phase contrast images (typically three images from two wells) were automatically analyzed. […] Cells were identified and measured in FIJI/ImageJ (Max Planck Society/National Institutes of Health; size limit: 40 to 600 pixel̂2, circularity limit: 0.01 to 1.00). […] For HEK293 cells, MAPK pathway activation was measured using luciferase as described above.

M38K cells = assay: All optical evaluation of pharmacological compounds / cell morphology, M38K cells stably expressing Opto-mFGFR1; format: cell-based, human; details: for Abrogation of light-induced morphology changes of M38K cells: Opto-mFGFR1 activated by blue light ~3 μW/mm^2, PD 5 μM, BIBF 0.5 μM, PON 1 μM, SEL 0.5 μM, UO 10 μM, MK 10 μM, LY 20 μM, automated image analysis
Source text: M38K and SPC212, two malignant pleural mesothelioma cell lines, were maintained in RPMI1640 supplemented with 10% FBS. Telomerase-immortalized microvascular hBE cells were maintained in Clonetics EGM2 MV endothelial growth medium (Lonza, Wakersville, Md.) supplemented with 5% FBS. For retrovirus generation, Opto-mFGFR1 or mCherry as control was subcloned into pQCXIP (Clontech, Mountain View, Calif.) using EcoRI and NotI restriction enzymes. Viral particles were generated in HEK293 cells by co-transfection with the helper plasmids pVSV-G and p-gag-pol-gpt. Supernatants were used to transduce M38K, SPC212 or hBE cells grown to 50% confluency in 6-well plates. Cells were selected with 0.8 μg/ml puromycin for 10 d and transgene expression was verified by immunoblotting.
10^5 M38K cells were seeded in each well of 6-well plates. After 24 h, cells were stimulated for 1 h or kept in the dark. FGF2 (Sigma) or PD166866 (Pfizer Global Research and Development, New London, Conn.) were added as indicated. After additional 24 h, cells were photographed on the Nikon Ti300 microscope. For quantification of cell morphology, all cell perimeters in randomly selected sections of phase contrast images were traced and aspect ratios (defined as length of major axis divided by length of minor axis of a fitted ellipse) calculated with ImageJ software (National Institute of Health). Greater than 50 individual values contributed to each average.
For M38K cells, cell morphology was evaluated as described above but followed by automated image analysis. Phase contrast images (typically three images from two wells) were automatically analyzed. Images were converted to greyscale, resized and divided into segments for local threshold correction (threshold was defined as most probably intensity multiplied by a constant factor of 0.85; Igor Pro, Wavemetrics, Lake Oswego, Oreg.). Cells were identified and measured in FIJI/ImageJ (Max Planck Society/National Institutes of Health; size limit: 40 to 600 pixel̂2, circularity limit: 0.01 to 1.00). Occasionally, outliers were removed manually. Typically 200 to 1800 individual values contributed to the averages of FIG. 9. For HEK293 cells, MAPK pathway activation was measured using luciferase as described above.

[1] = high doses (0.17% of diet or 10 mg/kg), McCarty (2007); cited from earlier work
[2] = published half lives converted to lifetimes where necessary; cited from earlier work
LOV domains = details: cited from earlier work
[3] = system: luciferase reporter plasmid; assay: Light-activated VfAU1-LOV transcription factor, luciferase reporter; format: cell-based; details: blue light ~3 μW/mm^2, FIG. 4b
Source text: The plasmid pGAVPO (Y. Yang, East China University of Science and Technology) contains a Gal4 DNA binding domain, NcVV-LOV and a transactivation domain (Wang et al. 2012) (FIG. 4b). Blue-light activation of pGAVPO was detected with the luciferase reporter plasmid applied in MAPK pathways assays (see above; this plasmid contains multiple UAS sequences). VfAU1-LOV was amplified by PCR and oligonucleotides 24 and 25 (SEQ ID NO: 38 and 39, respectively) and inserted in pGAVPO using BglII and EcoRI restriction enzymes. Constructs was verified by DNA sequencing. Luciferase activation experiments were performed as described above except that mFGFR1 plasmids were replaced with 50 ng pGAVPO per well.

[4] = dark state, read-out: Estimated KD, Dark
[5] = light state, read-out: Estimated KD, Light

T1 sequence (P16092 with tags, fused parts or gaps): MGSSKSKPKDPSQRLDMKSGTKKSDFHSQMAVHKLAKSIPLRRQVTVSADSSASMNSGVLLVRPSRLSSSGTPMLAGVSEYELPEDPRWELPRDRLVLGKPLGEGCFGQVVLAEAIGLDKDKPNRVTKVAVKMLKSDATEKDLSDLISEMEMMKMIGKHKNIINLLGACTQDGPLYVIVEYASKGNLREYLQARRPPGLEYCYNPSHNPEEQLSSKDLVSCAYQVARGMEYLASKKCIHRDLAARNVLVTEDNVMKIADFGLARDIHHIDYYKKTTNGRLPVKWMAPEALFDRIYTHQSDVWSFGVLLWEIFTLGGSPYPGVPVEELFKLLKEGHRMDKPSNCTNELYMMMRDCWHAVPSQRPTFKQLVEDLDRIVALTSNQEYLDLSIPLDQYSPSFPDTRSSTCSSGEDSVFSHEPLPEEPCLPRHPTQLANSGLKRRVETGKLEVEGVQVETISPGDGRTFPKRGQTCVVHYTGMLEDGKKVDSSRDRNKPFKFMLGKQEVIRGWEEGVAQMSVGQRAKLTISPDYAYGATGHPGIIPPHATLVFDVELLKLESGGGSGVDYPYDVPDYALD

For `CC[C@H](C(=O)N1CCCC[C@H]1C(=O)O[C@H](CCc1ccc(OC)c(OC)c1)c1cccc(OCC(=O)NCC(CNC(=O)COc2cccc([C@@H](CCc3ccc(OC)c(OC)c3)OC(=O)[C@@H]3CCCCN3C(=O)[C@@H](CC)c3cc(OC)c(OC)c(OC)c3)c2)CN(C)C)c1)c1cc(OC)c(OC)c(OC)c1` [AP20187], the “Activation of imFGFR1 (MAPK pathway)” value (imFGFR1) was “activated”.

With `Cc1ccc(NC(=O)c2ccc(CN3CCN(C)CC3)cc2)cc1Nc1nccc(-c2cccnc2)n1` [Imatinib] the “Abrogation of MAPK pathway induction in response to red light” value (“Abrogation of MAPK pathway induction” below) (MAPK pathway) was “not effective”.

For `NC1(c2ccc(-c3nc4ccn5c(=O)[nH]nc5c4cc3-c3ccccc3)cc2)CCC1` [MK2206], the “Abrogation of light-induced morphology changes of M38K cells” value (M38K cells) was “not effective”.

With `COc1cc(OC)cc(-c2cc3cnc(N)nc3nc2NC(=O)NC(C)(C)C)c1` [PD166866] the “Abrogation of MAPK pathway induction” value (MAPK pathway) was “not effective”, the “Light-induced changes in morphology after pre-treatment” value (M38K cells; M38K cells with Opto-mFGFR1, blue light, FIGS. 6e and f) was “inhibited” and the “Abrogation of light-induced morphology changes of M38K cells” value (M38K cells) was “abrogated”.

For `N#CC(=C(/N)Sc1ccccc1N)/C(C#N)=C(/N)Sc1ccccc1N` [UO126], the “Abrogation of MAPK pathway induction” value (MAPK pathway) was “abrogated” and the “Abrogation of light-induced morphology changes of M38K cells” value (M38K cells) was “abrogated”.

For FGF2: a prominent FGFR ligand, the Cell morphology response (M38K cells; M38K cells, blue light (Opto-mFGFR1) or added growth factor) was “elongated morphology”.

For Phycocyanobilin [PCB], the “Toxicity in living animals” value [1] is given as “non-toxic”.

B1: CrPH-LOV1: LOV domain of C. reinhardtii phototropin, residue 16 to 133 of A8IXU7, SEQ ID NO: 6 (protein, listed as Chlamydomonas reinhardtii)
chain: AGLRHTFVVADATLPDCPLVYASEGFYAMTGYGPDEVLGHNCRFLQGEGTDPKEVQKIRDAIKKGEACSVRLLNYRKDGTPFWNLLTVTPIKTPDGRVSKFVGVQVDVTSKTEGKALA
For B1, the “Estimated excited state lifetime” value [2] is given as ~200^1 s, the Kd (LOV domains; [4]) is given as < 55 µM and the Kd (LOV domains; [5]) is given as < 55 µM.

B2: GA-VfAU1-LOV-P: VfAU1-LOV incorporated into pGAVPO transcription factor (Gal4 DNA binding domain, transactivation domain) (protein)
chain: MKLLSSIEQACDICRLKKLKCSKEKPKCAKCLKNNWECRYSPKTKRSPLTRAHLTEVESRLERLEPDYSLVKALQMAQQNFVITDASLPDNPIVYASRGFLTLTGYSLDQILGRNCRFLQGPETDPRAVDKIRNAITKGVDTSVCLLNYRQDGTTFWNLFFVAGLRDSKGNIVNYVGVQSKVSEDYAKLLVNEQNIEYKGVRTSNMLRRK
modifications: left off: large carriers
For B2, the “Light activated transcriptional response (dimerization-dependent transcription factor)” value [3] was “light activated transcriptional responses”.

B3: AtPH1-LOV2: LOV domain of A. thaliana phototropin 1, residue 449 to 586 of O48963, SEQ ID NO: 2 (protein, listed as Arabidopsis thaliana)
chain: ESVDDKVRQKEMRKGIDLATTLERIEKNFVITDPRLPDNPIIFASDSFLELTEYSREEILGRNCRFLQGPETDLTTVKKIRNAIDNQTEVTVQLINYTKSGKKFWNIFHLQPMRDQKGEVQYFIGVQLDGSKHVEPVR
For B3, the “Estimated excited state lifetime” value [2] is listed as ~40 s, the Kd (LOV domains; [4]) is listed as < 25 µM and the Kd (LOV domains; [5]) is listed as < 25 µM.

B4: AtPH2-LOV2: LOV domain of A. thaliana phototropin 2, residue 363 to 500 of P93025, SEQ ID NO: 4 (protein, listed as Arabidopsis thaliana)
chain: DSWDLSDRERDIRQGIDLATTLERIEKNFVISDPRLPDNPIIFASDSFLELTEYSREEILGRNCRFLQGPETDQATVQKIRDAIRDQREITVQLINYTKSGKKFWNLFHLQPMRDQKGELQYFIGVQLDGSDHVEPLQ
In the case of B4, the “Estimated excited state lifetime” value [2] is given as ~7 s, the Kd (LOV domains; [4]) is given as < 25 µM and the Kd (LOV domains; [5]) is given as < 25 µM.
